Source: US6380155B1, “Use of vasopressin receptor antagonist for regulation of ACTH release” (SmithKline Beecham plc., priority 1996, dated 2002)

System: ob/ob mice
Test: Plasma corticosterone in ob/ob mice after 7-day osmotic minipump treatment
Type: in vivo, mouse
Conditions: C57BL/6J ob/ob mice, 86.4 μg/day by osmotic minipump for 7 days
Protocol: A study was performed in 4-6 weeks old C57BL/6J mice homozygous (ob/ob) for the obese gene mutation to assess the effect of [deamino-Pen^1, o-Me-Tyr^2, Arg^8]-AVP (Sigma) a non-selective peptide V1b receptor antagonist on corticosterone concentration. Osmotic minipumps (Alzet Model 1007D, 0.5 μl/h for 7 days) were filled either with the peptide (to deliver 86.4 μg/day for 7 days) or vehicle and primed at least for 4 h at 37° C. before their implantation. A group of mice heterozygous (+/?) for the obese gene mutation was also implanted with osmotic minipumps filled with vehicle alone. After 7 days of treatment blood was collected into EDTA tubes and separated plasma assayed for corticosterone concentration measurement, by using a commercial rat ^125I-corticosterone (Amersham, U.K.).

In the case of “[deamino-Pen^1, o-Me-Tyr^2, Arg^8]-AVP [AVP antagonist]”, the Plasma corticosterone concentration (n=7 per group, vehicle 228.9±63 ng/ml) is reported as 109.9 ± 19.4 ng/mL and the “Plasma corticosterone concentration (effect in words)” value (versus vehicle and lean group) is reported as “reduced”.
